# Assay results published in ChEMBL document CHEMBL1201862, “PubChem BioAssay data set” (2004).
# Calls of active or inactive are those of the source.
# Experiments:
# [1] = biological target: T1, Delta-type opioid receptor (Homo sapiens, UniProt P41143); test: HTS Image-Based Screen for Antagonists of the DOR Receptor. [Related pubchem assays (depositor defined):AID1777, AID1785, AID1786, AID2133]; assay type: functional
# Mu-type opioid receptor = Mu-type opioid receptor (Homo sapiens, UniProt P35372); test: HTS Image-Based Screen for Agonists of the MOR Receptor. [Related pubchem assays (depositor defined):AID1777, AID1785, AID1786, AID2133]; assay type: functional;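 further: imaging of beta-arrestin GFP recruitment into spots after receptor activation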
# [2] = biological target: T1, Delta-type opioid receptor; test: HTS Image-Based Screen for Agonists of the DOR Receptor. [Related pubchem assays (depositor defined):AID1777, AID1786, AID2133]; assay type: functional
# Streptokinase A = biological target: T2, Streptokinase A (Streptococcus pyogenes serotype M1, UniProt P10520); test: viability-normalized secreted streptokinase activity reduction – plasminogen activation absorbance, OD405, dose response (AID 1914); assay type: functional, Streptococcus pyogenes M1 GAS;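 further: secreted streptokinase activity via plasminogen activation per viability signal from cell pellet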
# T2 sequence (P10520 whole entry): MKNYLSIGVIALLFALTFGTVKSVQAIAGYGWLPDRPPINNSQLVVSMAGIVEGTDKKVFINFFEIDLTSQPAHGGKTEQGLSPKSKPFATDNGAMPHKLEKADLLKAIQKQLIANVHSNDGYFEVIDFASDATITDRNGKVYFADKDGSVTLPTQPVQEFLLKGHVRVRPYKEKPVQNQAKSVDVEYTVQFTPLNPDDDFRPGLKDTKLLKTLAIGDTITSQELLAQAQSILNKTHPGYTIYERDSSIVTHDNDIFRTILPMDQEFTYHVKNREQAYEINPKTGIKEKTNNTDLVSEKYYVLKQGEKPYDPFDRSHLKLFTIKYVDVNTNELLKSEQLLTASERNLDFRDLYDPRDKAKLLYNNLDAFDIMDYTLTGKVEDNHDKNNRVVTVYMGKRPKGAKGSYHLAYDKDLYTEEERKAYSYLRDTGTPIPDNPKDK
# [3] = biological target: T3, Kappa-type opioid receptor (Homo sapiens, UniProt P41145); assay type: functional
# Beta-galactosidase = Beta-galactosidase (Escherichia coli, UniProt Q8VNN2); assay type: functional
# [4] = biological target: T3, Kappa-type opioid receptor; assay type: functional; remark: listed apart in the source
# Paired box protein Pax-8 = Paired box protein Pax-8 (Homo sapiens, UniProt Q06710); test: PAX8 transcriptional activity inhibition in RMG-I – RMG-I cells, luciferase, cherry-pick, dose response (AID 687027); assay type: functional, cell-based;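 further: luciferase reporter driven by Pax8 target thyroperoxidase promoter measured by SteadyGlo luminescence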
# Exodeoxyribonuclease V = Exodeoxyribonuclease V (Escherichia coli (strain K12), UniProt P04993+P07648+P08394); test: RecBCD inhibition via phage-restricted bacterial growth – absorbance, V66 E. coli, mutant T4 phage, counter-screen for AddAB inhibitor project, dose response (AID 492957); assay type: functional, cell-based, Escherichia coli str. K-12 substr. MG1655
# [5] = Counterscreen for AddAB inhibitors: absorbance-based bacterial cell-based high throughput dose response assay for inhibitors of bacterial viability. [Related pubchem assays (depositor defined):AID435030, AID449728, AID449731, AID488942, AID488955, AID488956]; assay type: functional
# [6] = biological target: T4, High affinity choline transporter 1 (Homo sapiens, UniProt Q9GZV3); test: human choline transporter blockers, potency – cell-based, 5-point CRC, membrane potential dye, dose response (AID 504840); assay type: functional
# T4 sequence (Q9GZV3 whole entry): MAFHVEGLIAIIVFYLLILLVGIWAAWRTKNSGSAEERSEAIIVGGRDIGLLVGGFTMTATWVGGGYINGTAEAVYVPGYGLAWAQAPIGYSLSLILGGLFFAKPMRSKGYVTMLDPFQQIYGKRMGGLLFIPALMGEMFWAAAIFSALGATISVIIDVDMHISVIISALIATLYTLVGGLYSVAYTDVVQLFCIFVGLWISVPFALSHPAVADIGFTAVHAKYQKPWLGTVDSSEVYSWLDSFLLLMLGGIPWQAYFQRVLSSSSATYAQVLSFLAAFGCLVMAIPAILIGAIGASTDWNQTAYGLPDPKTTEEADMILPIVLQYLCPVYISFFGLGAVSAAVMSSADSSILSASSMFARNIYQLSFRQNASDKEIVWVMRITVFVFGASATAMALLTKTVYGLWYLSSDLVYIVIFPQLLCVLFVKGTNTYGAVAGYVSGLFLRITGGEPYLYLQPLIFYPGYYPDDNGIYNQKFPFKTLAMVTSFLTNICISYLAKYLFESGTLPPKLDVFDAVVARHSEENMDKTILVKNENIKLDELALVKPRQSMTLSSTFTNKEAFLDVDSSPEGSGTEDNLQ
# Trypsin = Trypsin (Sus scrofa, UniProt P00761); test: trypsin protease activity blockade – biochemical, quenched peptide fluorescence, cherry-pick, selectivity assay for Rce1 protease inhibitor project, dose response (AID 488789)
# CAAX prenyl protease 1 = CAAX prenyl protease 1 (Saccharomyces cerevisiae S288c, UniProt P47154); test: yeast CAAX protease Ste24 inhibition – biochemical, S. cerevisiae, plate reader, cherry-pick, dose response (AID 488815)
# [7] = biological target: Eukaryotic translation initiation factor 4H (Homo sapiens, UniProt Q15056); test: eIF4H binding inhibition – biochemical, uHTS, fluorescence polarization, translation initiation inhibitor project, primary screen (AID 2012)
# [8] = biological target: Polyadenylate-binding protein 1 (Homo sapiens, UniProt P11940); test: blockers of PABP interaction with poly(A) – biochemical, fluorescence polarization, […] (AID 2014)
# [9] = biological target: Intestinal-type alkaline phosphatase (Mus musculus, UniProt P24822); test: PubChem AID 488785; assay type: functional
# [10] = biological target: T5, Alkaline phosphatase, tissue-nonspecific isozyme (Homo sapiens, UniProt P05186); test: TNAP enzyme inhibition by screening hits, dose response, selectivity assay for mouse IAP inhibitor project, biochemical, human TNAP, uHTS hits (AID 488906); assay type: functional
# T5 sequence (P05186 whole entry): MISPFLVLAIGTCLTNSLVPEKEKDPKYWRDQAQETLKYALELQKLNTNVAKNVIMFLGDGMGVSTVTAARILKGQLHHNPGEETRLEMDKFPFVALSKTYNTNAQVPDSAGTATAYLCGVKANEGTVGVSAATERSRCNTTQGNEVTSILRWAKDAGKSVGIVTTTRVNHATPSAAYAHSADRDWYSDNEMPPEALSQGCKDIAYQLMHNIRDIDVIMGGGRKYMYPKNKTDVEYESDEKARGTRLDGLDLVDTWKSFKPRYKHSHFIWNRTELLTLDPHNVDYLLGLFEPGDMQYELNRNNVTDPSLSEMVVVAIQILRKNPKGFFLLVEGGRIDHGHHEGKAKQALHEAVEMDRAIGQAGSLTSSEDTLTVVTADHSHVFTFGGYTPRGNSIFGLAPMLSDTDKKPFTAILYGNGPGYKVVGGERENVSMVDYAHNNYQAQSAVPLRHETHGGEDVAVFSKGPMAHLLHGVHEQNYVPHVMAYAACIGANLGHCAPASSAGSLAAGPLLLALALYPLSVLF
# [11] = biological target: Intestinal-type alkaline phosphatase (Homo sapiens, UniProt P09923); test: inhibition of human intestinal alkaline phosphatase – biochemical, dose response (AID 488876); assay type: functional
# Intestinal-type alkaline phosphatase (Homo sapiens, UniProt P09923), sequence (P09923 whole entry): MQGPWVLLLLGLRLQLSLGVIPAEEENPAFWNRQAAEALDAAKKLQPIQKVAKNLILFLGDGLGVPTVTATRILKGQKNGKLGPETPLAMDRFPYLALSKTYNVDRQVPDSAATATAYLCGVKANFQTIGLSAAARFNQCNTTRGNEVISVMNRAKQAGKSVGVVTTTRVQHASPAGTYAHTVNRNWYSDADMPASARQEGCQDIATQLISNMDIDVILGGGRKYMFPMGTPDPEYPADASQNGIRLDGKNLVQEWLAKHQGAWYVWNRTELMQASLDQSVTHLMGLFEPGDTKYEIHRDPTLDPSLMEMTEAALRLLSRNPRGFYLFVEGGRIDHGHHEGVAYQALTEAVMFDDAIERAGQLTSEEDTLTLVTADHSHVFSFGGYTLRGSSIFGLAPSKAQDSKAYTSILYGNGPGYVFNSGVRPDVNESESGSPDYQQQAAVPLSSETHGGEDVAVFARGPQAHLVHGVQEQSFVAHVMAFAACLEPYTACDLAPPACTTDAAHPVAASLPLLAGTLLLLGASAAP
# T3 sequence (P41145 whole entry): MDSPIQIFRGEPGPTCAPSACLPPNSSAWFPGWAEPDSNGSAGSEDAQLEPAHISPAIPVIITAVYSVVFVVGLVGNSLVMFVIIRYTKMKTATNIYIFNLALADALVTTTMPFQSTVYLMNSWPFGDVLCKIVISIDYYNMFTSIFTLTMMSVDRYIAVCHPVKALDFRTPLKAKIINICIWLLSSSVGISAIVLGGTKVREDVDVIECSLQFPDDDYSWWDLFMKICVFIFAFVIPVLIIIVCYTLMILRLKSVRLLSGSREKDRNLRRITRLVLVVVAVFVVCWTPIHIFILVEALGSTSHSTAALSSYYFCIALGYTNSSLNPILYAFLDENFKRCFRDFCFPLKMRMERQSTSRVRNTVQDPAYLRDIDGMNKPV
# T1 sequence (P41143 whole entry): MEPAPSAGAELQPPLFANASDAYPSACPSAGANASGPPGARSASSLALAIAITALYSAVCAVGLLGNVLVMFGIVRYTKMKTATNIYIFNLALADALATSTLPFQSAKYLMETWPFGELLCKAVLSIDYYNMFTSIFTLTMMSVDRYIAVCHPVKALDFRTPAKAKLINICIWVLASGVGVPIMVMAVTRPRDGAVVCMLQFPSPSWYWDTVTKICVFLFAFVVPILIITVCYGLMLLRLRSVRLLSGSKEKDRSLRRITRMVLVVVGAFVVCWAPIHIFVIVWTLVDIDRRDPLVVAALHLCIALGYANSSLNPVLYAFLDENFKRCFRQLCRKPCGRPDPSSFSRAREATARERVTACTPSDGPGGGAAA
# Exodeoxyribonuclease V, sequence (P04993 whole entry): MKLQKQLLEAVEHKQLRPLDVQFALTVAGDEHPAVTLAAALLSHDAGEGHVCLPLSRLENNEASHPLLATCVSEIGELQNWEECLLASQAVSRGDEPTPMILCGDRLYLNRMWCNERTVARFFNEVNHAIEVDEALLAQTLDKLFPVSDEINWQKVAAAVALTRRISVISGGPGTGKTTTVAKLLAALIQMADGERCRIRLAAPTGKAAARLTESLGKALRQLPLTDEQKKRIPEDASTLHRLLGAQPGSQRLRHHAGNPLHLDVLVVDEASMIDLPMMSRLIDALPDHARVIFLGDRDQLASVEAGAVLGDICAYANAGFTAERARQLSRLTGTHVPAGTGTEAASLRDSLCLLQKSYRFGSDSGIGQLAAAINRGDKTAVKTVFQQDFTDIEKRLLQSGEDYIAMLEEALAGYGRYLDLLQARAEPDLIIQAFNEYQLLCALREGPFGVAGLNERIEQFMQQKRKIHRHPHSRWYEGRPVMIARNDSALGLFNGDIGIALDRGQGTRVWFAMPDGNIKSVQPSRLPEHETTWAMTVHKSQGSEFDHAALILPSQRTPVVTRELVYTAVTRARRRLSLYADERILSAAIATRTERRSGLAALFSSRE
# Exodeoxyribonuclease V, sequence (P07648 whole entry): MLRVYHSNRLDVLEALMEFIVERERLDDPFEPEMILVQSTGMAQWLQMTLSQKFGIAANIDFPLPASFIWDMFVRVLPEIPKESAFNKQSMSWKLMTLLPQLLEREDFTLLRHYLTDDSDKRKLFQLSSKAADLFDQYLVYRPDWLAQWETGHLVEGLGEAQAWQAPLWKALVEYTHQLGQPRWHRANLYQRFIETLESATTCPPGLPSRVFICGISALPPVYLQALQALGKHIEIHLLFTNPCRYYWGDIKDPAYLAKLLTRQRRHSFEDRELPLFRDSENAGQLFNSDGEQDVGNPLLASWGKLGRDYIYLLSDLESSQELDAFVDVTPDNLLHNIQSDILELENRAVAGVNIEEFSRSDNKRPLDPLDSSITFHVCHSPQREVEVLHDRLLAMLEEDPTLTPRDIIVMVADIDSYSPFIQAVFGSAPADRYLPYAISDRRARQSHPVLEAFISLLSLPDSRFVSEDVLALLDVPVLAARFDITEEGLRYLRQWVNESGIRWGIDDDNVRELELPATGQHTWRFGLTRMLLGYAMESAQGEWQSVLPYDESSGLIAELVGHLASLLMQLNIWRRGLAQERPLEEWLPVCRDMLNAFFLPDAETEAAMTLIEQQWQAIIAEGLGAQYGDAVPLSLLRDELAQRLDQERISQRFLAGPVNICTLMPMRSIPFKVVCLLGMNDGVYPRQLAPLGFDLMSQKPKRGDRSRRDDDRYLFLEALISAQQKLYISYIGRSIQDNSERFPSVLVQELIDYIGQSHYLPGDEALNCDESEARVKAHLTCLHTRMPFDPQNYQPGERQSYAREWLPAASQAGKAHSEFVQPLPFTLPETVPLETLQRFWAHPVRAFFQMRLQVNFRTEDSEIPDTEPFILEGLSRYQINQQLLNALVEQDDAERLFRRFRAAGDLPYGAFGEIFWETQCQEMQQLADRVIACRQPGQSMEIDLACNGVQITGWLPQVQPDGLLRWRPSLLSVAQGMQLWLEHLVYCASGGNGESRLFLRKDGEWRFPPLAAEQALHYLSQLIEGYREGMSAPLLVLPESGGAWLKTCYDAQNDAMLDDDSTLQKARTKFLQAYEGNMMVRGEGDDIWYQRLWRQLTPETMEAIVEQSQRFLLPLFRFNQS
# Exodeoxyribonuclease V, sequence (P08394 whole entry): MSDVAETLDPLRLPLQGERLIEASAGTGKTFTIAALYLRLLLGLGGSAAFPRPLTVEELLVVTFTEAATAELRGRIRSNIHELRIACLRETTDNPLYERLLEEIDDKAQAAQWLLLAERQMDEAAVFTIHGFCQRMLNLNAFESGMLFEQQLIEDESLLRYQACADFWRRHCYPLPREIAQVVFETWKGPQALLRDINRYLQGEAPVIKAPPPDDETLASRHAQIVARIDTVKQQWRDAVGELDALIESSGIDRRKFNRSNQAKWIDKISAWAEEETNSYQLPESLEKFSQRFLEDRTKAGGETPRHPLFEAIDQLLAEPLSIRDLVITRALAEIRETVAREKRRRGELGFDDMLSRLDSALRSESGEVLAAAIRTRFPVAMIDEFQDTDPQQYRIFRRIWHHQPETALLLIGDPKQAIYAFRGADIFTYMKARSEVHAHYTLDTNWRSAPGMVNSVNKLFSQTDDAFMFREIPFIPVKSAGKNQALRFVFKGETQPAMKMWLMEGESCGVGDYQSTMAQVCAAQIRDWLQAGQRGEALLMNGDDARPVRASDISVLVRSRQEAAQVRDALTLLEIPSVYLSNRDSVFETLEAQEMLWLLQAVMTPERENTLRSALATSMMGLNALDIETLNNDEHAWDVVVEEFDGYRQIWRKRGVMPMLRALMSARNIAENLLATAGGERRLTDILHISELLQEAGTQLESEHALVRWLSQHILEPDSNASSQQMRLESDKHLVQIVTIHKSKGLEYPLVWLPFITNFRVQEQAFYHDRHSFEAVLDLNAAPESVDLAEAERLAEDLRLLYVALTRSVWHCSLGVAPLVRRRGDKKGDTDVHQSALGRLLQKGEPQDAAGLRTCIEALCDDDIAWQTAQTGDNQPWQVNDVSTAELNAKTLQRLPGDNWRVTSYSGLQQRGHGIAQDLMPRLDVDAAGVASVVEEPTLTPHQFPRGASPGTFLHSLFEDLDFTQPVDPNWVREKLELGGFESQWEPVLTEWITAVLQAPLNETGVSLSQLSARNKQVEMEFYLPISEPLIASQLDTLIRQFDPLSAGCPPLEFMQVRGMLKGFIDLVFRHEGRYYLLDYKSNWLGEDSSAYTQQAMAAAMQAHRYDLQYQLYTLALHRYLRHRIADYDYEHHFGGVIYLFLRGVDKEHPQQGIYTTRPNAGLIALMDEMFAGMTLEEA
# CAAX prenyl protease 1, sequence (P47154 whole entry): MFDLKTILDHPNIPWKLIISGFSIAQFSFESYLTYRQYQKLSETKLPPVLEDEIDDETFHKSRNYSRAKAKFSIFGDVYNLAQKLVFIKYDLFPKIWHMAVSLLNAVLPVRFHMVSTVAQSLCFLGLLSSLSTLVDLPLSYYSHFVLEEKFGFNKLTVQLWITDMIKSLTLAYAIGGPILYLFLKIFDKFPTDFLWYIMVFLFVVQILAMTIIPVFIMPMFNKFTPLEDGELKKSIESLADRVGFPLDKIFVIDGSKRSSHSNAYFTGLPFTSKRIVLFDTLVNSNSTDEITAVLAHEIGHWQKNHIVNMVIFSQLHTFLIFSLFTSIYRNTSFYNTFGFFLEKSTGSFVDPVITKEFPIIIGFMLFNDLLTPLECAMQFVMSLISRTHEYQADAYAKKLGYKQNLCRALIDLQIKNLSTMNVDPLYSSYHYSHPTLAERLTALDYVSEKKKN
# Mu-type opioid receptor, sequence (P35372 whole entry): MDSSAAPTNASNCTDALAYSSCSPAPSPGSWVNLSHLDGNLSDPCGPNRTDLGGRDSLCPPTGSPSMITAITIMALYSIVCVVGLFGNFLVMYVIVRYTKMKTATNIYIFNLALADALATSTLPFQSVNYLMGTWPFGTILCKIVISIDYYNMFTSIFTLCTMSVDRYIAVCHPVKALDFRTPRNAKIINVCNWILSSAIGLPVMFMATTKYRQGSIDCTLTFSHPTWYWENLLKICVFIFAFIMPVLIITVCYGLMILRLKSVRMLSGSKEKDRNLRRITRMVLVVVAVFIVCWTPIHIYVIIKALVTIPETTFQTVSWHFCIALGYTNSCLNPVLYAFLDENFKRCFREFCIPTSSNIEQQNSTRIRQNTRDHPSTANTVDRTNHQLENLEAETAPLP
compound,measurement,setting,value
O=c1nc(-c2ccccn2)[nH]c2sc(-c3ccccc3)cc12,IC50,[1],> 32 µM (inactive)
same,EC50,Mu-type opioid receptor,> 32 µM (inactive)
same,EC50,[2],> 32 µM (inactive)
same,EC50,Streptokinase A,> 150 µM (not active)
same,IC50,[3],1.79 µM (active)
same,EC50,Beta-galactosidase,> 31.5 µM (inactive)
same,IC50,[4],> 32 µM
same,AC50,Paired box protein Pax-8,14 µM (active)
Fc1ccc(Nc2nnc(C(F)(F)F)s2)cc1Cl,IC50,Exodeoxyribonuclease V,> 39.5 µM (inactive)
same,IC50,[5],96.8 µM (inactive)
same,IC50,[6],11 µM (active)
CCN(CC)CCCNC(=O)CCc1c(C)n(CC)c2cc(-c3ccccc3OC)nn2c1=O,AC50,Trypsin,13.1 µM (active)
same,AC50,CAAX prenyl protease 1,6.24 µM (active)
COc1cc(OC)c2c(c1O)OC(c1ccccc1)CC2=O (stereo not drawn),IC50,[7],48.6 µM (active)
same,IC50,[8],91.1 µM (active)
same,IC50,[9],21.8 µM (active)
same,IC50,[10],> 100 µM (inactive)
same,IC50,[11],> 100 µM (inactive)
